PubChem BioAssay (NCI)
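Five compound concentrations were applied to cells in 96-well plates for 48 hours; endpoints were derived by simple linear interpolation of the resulting dose-response curve. GI50 is the concentration that inhibits growth by half. TGI denotes the concentration required for complete inhibition of growth.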 Where a SMILES comes first, the peptide text is derived from it. The star is where a group is joined. Boc = CC(C)(C)OC(=O)*

How the values were obtained:
Assay in all cases: inhibition of tumour cell growth, NCI panel, 48 h
[1] = system: 786-0 renal
[2] = system: A498 renal
[3] = system: A549 NSCLC
[4] = system: ACHN renal
[5] = system: BT-549 breast
[6] = system: CAKI-1 renal
[7] = system: CCRF-CEM leukemia
[8] = system: COLO 205 colon
[9] = system: DU-145 prostate
[10] = system: EKVX NSCLC
[11] = system: HCC-2998 colon
[12] = system: HCT-116 colon
[13] = system: HCT-15 colon
[14] = system: HL-60(TB) leukemia
[15] = system: HOP-62 NSCLC
[16] = system: HOP-92 NSCLC
[17] = system: HS 578T breast
[18] = system: HT29 colon
[19] = system: IGROV1 ovarian
[20] = system: K-562 leukemia
[21] = system: KM12 colon
[22] = system: LOX IMVI melanoma
[23] = system: M14 melanoma
[24] = system: MALME-3M melanoma
[25] = system: MCF7 breast
[26] = system: MDA-MB-231 breast
[27] = system: MDA-MB-435
[28] = system: MDA-N
[29] = system: MOLT-4 leukemia
[30] = system: NCI-H226 lung
[31] = system: NCI-H23 lung
[32] = system: NCI-H460 lung
[33] = system: NCI-H522 lung
[34] = system: NCI/ADR-RES ovarian
[35] = system: OVCAR-3 ovarian
[36] = system: OVCAR-4 ovarian
[37] = system: OVCAR-5 ovarian
[38] = system: OVCAR-8 ovarian
[39] = system: PC-3 prostate
[40] = system: RPMI-8226 leukemia
[41] = system: RXF 393 renal
[42] = system: SF-268 CNS
[43] = system: SF-295 CNS
[44] = system: SF-539 CNS
[45] = system: SK-MEL-2 melanoma
[46] = system: SK-MEL-28 melanoma
[47] = system: SK-MEL-5 melanoma
[48] = system: SK-OV-3 ovarian
[49] = system: SN12C renal
[50] = system: SNB-19 CNS
[51] = system: SNB-75 CNS
[52] = system: SR leukemia
[53] = system: SW-620 colon
[54] = system: T-47D breast
[55] = system: TK-10 renal
[56] = system: U251 CNS
[57] = system: UACC-257 melanoma
[58] = system: UACC-62 melanoma
[59] = system: UO-31 renal
[60] = system: KM20L2 colon
[61] = system: M19-MEL melanoma

COC(=O)C(Cc1ccccc1)NC(=O)C(CS)NC(=O)OC(C)(C)C (stereo not drawn) (Boc-Cys-Phe-OMe; configuration not given here)
TGI [1]: > 100 µM | TGI [2]: > 100 µM | TGI [3]: > 100 µM | TGI [4]: > 100 µM | TGI [5]: > 100 µM | TGI [6]: > 100 µM | TGI [7]: 89.3 µM | TGI [8]: > 100 µM | TGI [9]: > 100 µM | TGI [10]: > 100 µM | TGI [11]: > 100 µM | TGI [12]: > 100 µM | TGI [13]: > 100 µM | TGI [14]: > 100 µM | TGI [15]: > 100 µM | TGI [16]: > 100 µM | TGI [17]: > 100 µM | TGI [18]: > 100 µM | TGI [19]: > 100 µM | TGI [20]: > 100 µM | TGI [21]: > 100 µM | TGI [22]: > 100 µM | TGI [23]: > 100 µM | TGI [24]: > 100 µM | TGI [25]: > 100 µM | TGI [26]: > 100 µM | TGI [27]: > 100 µM | TGI [28]: > 100 µM | TGI [29]: 41.3 µM | TGI [30]: > 100 µM | TGI [31]: > 100 µM | TGI [32]: > 100 µM | TGI [33]: > 100 µM | TGI [34]: > 100 µM | TGI [35]: > 100 µM | TGI [36]: > 100 µM | TGI [37]: > 100 µM | TGI [38]: > 100 µM | TGI [39]: > 100 µM | TGI [40]: > 100 µM | TGI [41]: > 100 µM | TGI [42]: > 100 µM | TGI [43]: > 100 µM | TGI [44]: > 100 µM | TGI [45]: > 100 µM | TGI [46]: > 100 µM | TGI [47]: > 100 µM | TGI [48]: > 100 µM | TGI [49]: > 100 µM | TGI [50]: > 100 µM | TGI [51]: > 100 µM | TGI [52]: > 100 µM | TGI [53]: > 100 µM | TGI [54]: > 100 µM | TGI [55]: > 100 µM | TGI [56]: > 100 µM | TGI [57]: > 100 µM | TGI [58]: > 100 µM | TGI [59]: > 100 µM

O=C(C=Nc1ccccc1C(=O)[O-])c1cccs1.O=C(C=Nc1ccccc1C(=O)[O-])c1cccs1.[Ni+2]
TGI [1]: > 100 µM | TGI [2]: > 100 µM | TGI [3]: > 100 µM | TGI [4]: > 100 µM | TGI [6]: > 100 µM | TGI [7]: > 100 µM | TGI [8]: > 100 µM | TGI [11]: > 100 µM | TGI [12]: > 100 µM | TGI [13]: > 100 µM | TGI [14]: > 100 µM | TGI [15]: > 100 µM | TGI [16]: > 100 µM | TGI [18]: > 100 µM | TGI [19]: > 100 µM | TGI [20]: > 100 µM | TGI [21]: > 100 µM | TGI [60]: > 100 µM | TGI [22]: > 100 µM | TGI [23]: > 100 µM | GI50 [61]: 31.1 µM | TGI [61]: > 100 µM | TGI [24]: > 100 µM | TGI [29]: > 100 µM | TGI [31]: > 100 µM | TGI [32]: > 100 µM | TGI [33]: 55.3 µM | TGI [35]: > 100 µM | TGI [37]: > 100 µM | TGI [38]: > 100 µM | TGI [42]: > 100 µM | TGI [43]: > 100 µM | TGI [44]: > 100 µM | TGI [45]: > 100 µM | TGI [46]: > 100 µM | TGI [48]: > 100 µM | TGI [49]: > 100 µM | TGI [50]: > 100 µM | TGI [52]: > 100 µM | TGI [53]: > 100 µM | TGI [55]: > 100 µM | TGI [56]: > 100 µM | TGI [57]: > 100 µM | TGI [58]: > 100 µM | TGI [59]: > 100 µM

CCOP(=O)(CCCC(O)CNc1nc(N)nc(Cl)c1N=Nc1ccc(Cl)cc1)OCC (configuration not stated)
TGI [1]: 17.9 µM | TGI [2]: 20.7 µM | TGI [3]: 23.9 µM | TGI [4]: 15.4 µM | TGI [5]: 20.8 µM | TGI [6]: 13.9 µM | TGI [7]: 9.92 µM | TGI [8]: 20.4 µM | TGI [9]: 18.2 µM | TGI [10]: 15.5 µM | TGI [11]: 30.6 µM | TGI [12]: 21.7 µM | TGI [13]: 20.2 µM | TGI [14]: 4.19 µM | TGI [15]: 24.8 µM | TGI [16]: 25.8 µM | TGI [17]: 30.3 µM | TGI [18]: 23.4 µM | TGI [19]: 26.1 µM | TGI [20]: 16 µM | TGI [21]: 25 µM | TGI [22]: 13.8 µM | TGI [24]: 20.9 µM | TGI [25]: 27 µM | TGI [26]: 8.6 µM | TGI [27]: 19 µM | TGI [28]: 18.8 µM | TGI [29]: 11.8 µM | TGI [30]: 22.1 µM | TGI [31]: 28 µM | TGI [32]: 37 µM | TGI [33]: 17 µM | TGI [34]: 31 µM | TGI [35]: 18.4 µM | TGI [36]: 17.6 µM | TGI [37]: 25.5 µM | TGI [38]: 22.9 µM | TGI [39]: 16.7 µM | TGI [40]: 8.23 µM | TGI [41]: 18.5 µM | TGI [42]: 18.1 µM | TGI [43]: 21.7 µM | TGI [44]: 23 µM | TGI [45]: 27.3 µM | TGI [46]: 20.8 µM | TGI [47]: 15.5 µM | TGI [48]: 19.2 µM | TGI [49]: 18.2 µM | TGI [50]: 22.8 µM | TGI [51]: 11.1 µM | TGI [52]: 6.82 µM | TGI [53]: 36.5 µM | TGI [54]: 23.2 µM | TGI [55]: 13.6 µM | TGI [56]: 22.7 µM | TGI [57]: 18.1 µM | TGI [58]: 19.1 µM | TGI [59]: 16.1 µM
